Data: patent US20240199649A1 (Biosplice Therapeutics, Inc., priority 2022, published 2024)
pIC50: −log10 of the molar value.

target: recombinant DYRK1A kinase (Homo sapiens (Human), UniProt Q13627); test: DYRK1A kinase assay (Ser/Thr 18 peptide Z-lyte FRET assay); type: biochemical; conditions: DYRK1A 0.25 μg/mL, ATP 15 μM, Ser/Thr peptide 18 4 μM; one hour at room temperature; 11-point dose-response, duplicate
Experimental: Representative compounds were screened using the assay procedure for DYRK1A kinase activity as described below.
Each compound was dissolved in DMSO as a 10 mM stock and used to prepare compound source plates.
This is a non-radioactive assay using fluorescence resonance energy transfer (FRET) between coumarin and fluorescein to detect kinase activity which is represented as a ratio of coumarin emission/fluorescein emission.
The mixture was allowed to incubate with the representative compounds for one hour at room temperature. All reactions were performed in duplicate. Unphosphorylated (“0% Control”) and phosphorylated (“100% control”) forms of Ser/Thr 18 served as control reactions. Additionally, an 11-point dose-response curve of Staurosporine (1 uM top) was run to serve as a positive compound control.
After incubation, Development Reagent A was diluted in Development Buffer then added to the reaction and allowed to further incubate for one hour at room temperature.
Dose-response curves were generated, and inhibitory concentration (IC50) values were calculated using non-linear regression curve fit in the Dotmatics' Studies Software (Bishops Stortford, UK).

**Q.** How did the pIC50 turn out when CNc1nc(N[C@H]2CN(C3COC3)CC2(F)F)nn2ccc(-c3ccc4nc(C)n(CC(F)F)c4n3)c12 [Compound 367, (S)—N^2-(4,4-difluoro-1-(oxetan-3-yl)pyrrolidin-3-yl)-5-(3-(2,2-difluoroethyl)-2-methyl-3H-imidazo[4,5-b]pyridin-5-yl)-N^4-methylpyrrolo[2,1-f][1,2,4]triazine-2,4-diamine] was run?
**A.** The pIC50 was 8.19.

**Q.** CNc1nc(N[C@@H]2CN(C3COC3)CC2(F)F)nn2ccc(-c3ccc4nc(C)n(CC(F)F)c4n3)c12 [Compound 368, (R)—N^2-(4,4-Difluoro-1-(oxetan-3-yl)pyrrolidin-3-yl)-5-(3-(2,2-difluoroethyl)-2-methyl-3H-imidazo[4,5-b]pyridin-5-yl)-N^4-methylpyrrolo[2,1-f][1,2,4]triazine-2,4-diamine] was tested. Which pIC50 did it give?
**A.** Its pIC50 is 8.92.

**Q.** How did the pIC50 turn out when CNc1nc(NC2CCN(CCF)CC2)nn2ccc(-c3ccc4nc(C)n(CC(F)F)c4n3)c12 [Compound 369, 5-(3-(2,2-Difluoroethyl)-2-methyl-3H-imidazo[4,5-b]pyridin-5-yl)-N^2-(1-(2-fluoroethyl)piperidin-4-yl)-N^4-methylpyrrolo[2,1-f][1,2,4]triazine-2,4-diamine] was run?
**A.** Its pIC50 is 8.54.

**Q.** With CNc1nc(NC2CCN(CC(F)(F)F)CC2)nn2ccc(-c3ccc4nc(C)n(CC(F)F)c4n3)c12 [Compound 370, 5-(3-(2,2-Difluoroethyl)-2-methyl-3H-imidazo[4,5-b]pyridin-5-yl)-N^4-methyl-N^2-(1-(2,2,2-trifluoroethyl)piperidin-4-yl)pyrrolo[2,1-f][1,2,4]triazine-2,4-diamine] as the compound, how does the pIC50 read?
**A.** The pIC50 was 7.81.

**Q.** CNc1nc(NC2CCN(C3CC(F)(F)C3)CC2)nn2ccc(-c3ccc4nc(C)n(CC(F)F)c4n3)c12 [Compound 371, N^2-(1-(3,3-Difluorocyclobutyl)piperidin-4-yl)-5-(3-(2,2-difluoroethyl)-2-methyl-3H-imidazo[4,5-b]pyridin-5-yl)-N^4-methylpyrrolo[2,1-f][1,2,4]triazine-2,4-diamine] was tested. Which pIC50 did it give?
**A.** The pIC50 was 8.66.

**Q.** How did the pIC50 turn out when CCN1CC[C@@H](Nc2nc(NC)c3c(-c4ccc5nc(C)n(CC(F)F)c5n4)ccn3n2)[C@@H](F)C1 [Compound 372, 5-(3-(2,2-Difluoroethyl)-2-methyl-3H-imidazo[4,5-b]pyridin-5-yl)-N^2-((3S,4R)-1-ethyl-3-fluoropiperidin-4-yl)-N^4-methylpyrrolo[2,1-f][1,2,4]triazine-2,4-diamine] was run?
**A.** The pIC50 was 8.30.

**Q.** CCN1CC[C@H](Nc2nc(NC)c3c(-c4ccc5nc(C)n(CC(F)F)c5n4)ccn3n2)[C@H](F)C1 [Compound 373, 5-(3-(2,2-Difluoroethyl)-2-methyl-3H-imidazo[4,5-b]pyridin-5-yl)-N^2-((3R,4S)-1-ethyl-3-fluoropiperidin-4-yl)-N^4-methylpyrrolo[2,1-f][1,2,4]triazine-2,4-diamine] was tested. Which pIC50 did it give?
**A.** Its pIC50 is 8.42.

**Q.** With CNc1nc(N[C@@H]2CCN(CCF)C[C@@H]2F)nn2ccc(-c3ccc4nc(C)n(CC(F)F)c4n3)c12 [Compound 374, 5-(3-(2,2-Difluoroethyl)-2-methyl-3H-imidazo[4,5-b]pyridin-5-yl)-N^2-((3S,4R)-3-fluoro-1-(2-fluoroethyl)piperidin-4-yl)-N^4-methylpyrrolo[2,1-f][1,2,4]triazine-2,4-diamine] as the compound, how does the pIC50 read?
**A.** The pIC50 was 8.66.

**Q.** How did the pIC50 turn out when CNc1nc(N[C@H]2CCN(CCF)C[C@H]2F)nn2ccc(-c3ccc4nc(C)n(CC(F)F)c4n3)c12 [Compound 375, 5-(3-(2,2-Difluoroethyl)-2-methyl-3H-imidazo[4,5-b]pyridin-5-yl)-N^2-((3R,4S)-3-fluoro-1-(2-fluoroethyl)piperidin-4-yl)-N^4-methylpyrrolo[2,1-f][1,2,4]triazine-2,4-diamine] was run?
**A.** The pIC50 was 9.22.

**Q.** With CNc1nc(N[C@@H]2CCN(C3CC3)C[C@@H]2F)nn2ccc(-c3ccc4nc(C)n(CC(F)F)c4n3)c12 [Compound 377, N^2-((3S,4R)-1-Cyclopropyl-3-fluoropiperidin-4-yl)-5-(3-(2,2-difluoroethyl)-2-methyl-3H-imidazo[4,5-b]pyridin-5-yl)-N^4-methylpyrrolo[2,1-f][1,2,4]triazine-2,4-diamine] as the compound, how does the pIC50 read?
**A.** Its pIC50 is 8.44.

**Q.** CNc1nc(N[C@H]2CCN(C3CC3)C[C@H]2F)nn2ccc(-c3ccc4nc(C)n(CC(F)F)c4n3)c12 [Compound 378, N^2-((3R,4S)-1-Cyclopropyl-3-fluoropiperidin-4-yl)-5-(3-(2,2-difluoroethyl)-2-methyl-3H-imidazo[4,5-b]pyridin-5-yl)-N^4-methylpyrrolo[2,1-f][1,2,4]triazine-2,4-diamine] was tested. Which pIC50 did it give?
**A.** The pIC50 was 8.39.

**Q.** With CNc1nc(N[C@@H]2CCN(C3CC(F)(F)C3)C[C@@H]2F)nn2ccc(-c3ccc4nc(C)n(CC(F)F)c4n3)c12 [Compound 380, N^2-((3S,4R)-1-(3,3-Difluorocyclobutyl)-3-fluoropiperidin-4-yl)-5-(3-(2,2-difluoroethyl)-2-methyl-3H-imidazo[4,5-b]pyridin-5-yl)-N^4-methylpyrrolo[2,1-f][1,2,4]triazine-2,4-diamine] as the compound, how does the pIC50 read?
**A.** The pIC50 was 8.49.

**Q.** How did the pIC50 turn out when CNc1nc(N[C@H]2CCN(C3CC(F)(F)C3)C[C@H]2F)nn2ccc(-c3ccc4nc(C)n(CC(F)F)c4n3)c12 [Compound 381, N^2-((3R,4S)-1-(3,3-Difluorocyclobutyl)-3-fluoropiperidin-4-yl)-5-(3-(2,2-difluoroethyl)-2-methyl-3H-imidazo[4,5-b]pyridin-5-yl)-N^4-methylpyrrolo[2,1-f][1,2,4]triazine-2,4-diamine] was run?
**A.** Its pIC50 is 8.66.

**Q.** How did the pIC50 turn out when [2H]C([2H])([2H])Nc1nc(N[C@@H]2CCN(C)CC2(F)F)nn2ccc(-c3ccc4nc(C)n(CC(F)F)c4n3)c12 [Compound 382, (R)—N^2-(3,3-Difluoro-1-methylpiperidin-4-yl)-5-(3-(2,2-difluoroethyl)-2-methyl-3H-imidazo[4,5-b]pyridin-5-yl)-N^4-(methyl-d3)pyrrolo[2,1-f][1,2,4]triazine-2,4-diamine] was run?
**A.** Its pIC50 is 8.48.

**Q.** How did the pIC50 turn out when CCN1CC[C@@H](Nc2nc(NC)c3c(-c4ccc5nc(C)n(CC(F)F)c5n4)ccn3n2)C(F)(F)C1 [Compound 383, (R)-5-(3-(2,2-Difluoroethyl)-2-methyl-3H-imidazo[4,5-b]pyridin-5-yl)-N^2-(1-ethyl-3,3-difluoropiperidin-4-yl)-N^4-methylpyrrolo[2,1-f][1,2,4]triazine-2,4-diamine] was run?
**A.** The pIC50 was 8.46.

**Q.** How did the pIC50 turn out when CCN1CC[C@H](Nc2nc(NC)c3c(-c4ccc5nc(C)n(CC(F)F)c5n4)ccn3n2)C(F)(F)C1 [Compound 384, (S)-5-(3-(2,2-Difluoroethyl)-2-methyl-3H-imidazo[4,5-b]pyridin-5-yl)-N^2-(1-ethyl-3,3-difluoropiperidin-4-yl)-N^4-methylpyrrolo[2,1-f][1,2,4]triazine-2,4-diamine] was run?
**A.** The pIC50 was 8.70.

**Q.** [2H]C([2H])([2H])Nc1nc(N[C@@H]2CCN(CC)CC2(F)F)nn2ccc(-c3ccc4nc(C)n(CC(F)F)c4n3)c12 [Compound 385, (R)-5-(3-(2,2-Difluoroethyl)-2-methyl-3H-imidazo[4,5-b]pyridin-5-yl)-N^2-(1-ethyl-3,3-difluoropiperidin-4-yl)-N^4-(methyl-d3)pyrrolo[2,1-f][1,2,4]triazine-2,4-diamine] was tested. Which pIC50 did it give?
**A.** Its pIC50 is 8.34.

**Q.** How did the pIC50 turn out when CNc1nc(N[C@@H]2CCN(C3CC3)CC2(F)F)nn2ccc(-c3ccc4nc(C)n(CC(F)F)c4n3)c12 [Compound 386, (R)—N^2-(1-Cyclopropyl-3,3-difluoropiperidin-4-yl)-5-(3-(2,2-difluoroethyl)-2-methyl-3H-imidazo[4,5-b]pyridin-5-yl)-N^4-methylpyrrolo[2,1-f][1,2,4]triazine-2,4-diamine] was run?
**A.** The pIC50 was 8.34.

**Q.** How did the pIC50 turn out when CNc1nc(N[C@H]2CCN(C3CC3)CC2(F)F)nn2ccc(-c3ccc4nc(C)n(CC(F)F)c4n3)c12 [Compound 387, (S)—N^2-(1-Cyclopropyl-3,3-difluoropiperidin-4-yl)-5-(3-(2,2-difluoroethyl)-2-methyl-3H-imidazo[4,5-b]pyridin-5-yl)-N^4-methylpyrrolo[2,1-f][1,2,4]triazine-2,4-diamine] was run?
**A.** The pIC50 was 7.89.

**Q.** How did the pIC50 turn out when [2H]C([2H])([2H])Nc1nc(N[C@@H]2CCN(C3COC3)CC2(F)F)nn2ccc(-c3ccc4nc(C)n(CC(F)F)c4n3)c12 [Compound 388, (R)—N^2-(3,3-Difluoro-1-(oxetan-3-yl)piperidin-4-yl)-5-(3-(2,2-difluoroethyl)-2-methyl-3H-imidazo[4,5-b]pyridin-5-yl)-N^4-(methyl-d3)pyrrolo[2,1-f][1,2,4]triazine-2,4-diamine] was run?
**A.** The pIC50 was 8.33.

**Q.** How did the pIC50 turn out when CNc1nc(NC2CCC3(CC2)OCCO3)nn2ccc(-c3ccc4nc(C)n(CC(F)F)c4n3)c12 [Compound 389, 5-(3-(2,2-Difluoroethyl)-2-methyl-3H-imidazo[4,5-b]pyridin-5-yl)-N^4-methyl-N^2-(1,4-dioxaspiro[4.5]decan-8-yl)pyrrolo[2,1-f][1,2,4]triazine-2,4-diamine] was run?
**A.** The pIC50 was 8.74.

**Q.** With CNc1nc(N[C@H]2CC[C@@](C)(O)CC2)nn2ccc(-c3ccc4nc(C)n(CC(F)(F)F)c4n3)c12 [Compound 441, (1s,4s)-1-Methyl-4-((5-(2-methyl-3-(2,2,2-trifluoroethyl)-3H-imidazo[4,5-b]pyridin-5-yl)-4-(methylamino)pyrrolo[2,1-f][1,2,4]triazin-2-yl)amino)cyclohexan-1-ol] as the compound, how does the pIC50 read?
**A.** The pIC50 was 9.15.

**Q.** How did the pIC50 turn out when CNc1nc(N[C@H]2CC[C@](C)(O)CC2)nn2ccc(-c3ccc4nnn(CC(F)F)c4n3)c12 [Compound 465, (1r,4r)-4-((5-(3-(2,2-Difluoroethyl)-3H-[1,2,3]triazolo[4,5-b]pyridin-5-yl)-4-(methylamino)pyrrolo[2,1-f][1,2,4]triazin-2-yl)amino)-1-methylcyclohexan-1-ol] was run?
**A.** Its pIC50 is 8.85.
